Assay results from patent US7902254B1, “Method for treating conditions mediated by PPAR using macelignan” (Newtree Co., Ltd., priority 2005, dated 2011).

Legend:
human PPARα = target: T1, human PPARα (Homo sapiens, UniProt Q07869); experiment: PPARα activation, PPRE-controlled luciferase reporter in transfected COS-7 cells; type: cell-based; details: 24 hours
T1 construct: expressed in transfected cells; host or cells: COS-7 monkey kidney cells (ATCC CRL-1651)
T1 sequence (Q07869 192-468 limits assumed): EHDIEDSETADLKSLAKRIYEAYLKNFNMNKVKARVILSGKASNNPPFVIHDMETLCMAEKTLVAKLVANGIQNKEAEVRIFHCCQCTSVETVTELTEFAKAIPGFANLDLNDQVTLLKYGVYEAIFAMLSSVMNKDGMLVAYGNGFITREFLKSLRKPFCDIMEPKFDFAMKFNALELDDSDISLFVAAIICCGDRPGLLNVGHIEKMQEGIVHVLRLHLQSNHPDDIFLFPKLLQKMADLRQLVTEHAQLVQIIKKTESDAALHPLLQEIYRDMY
Description: To investigate whether macelignan acts as a ligand of PPAR or not, it was tested according to known method (Cell, 68: 879-887, 1992; J. Biol. Chem., 272: 25252-25259, 1997) using a plasmid expressing PPAR and a vector having PPRE-controlled luciferase genes.
Activation of luciferase expression was measured by transfecting COS-7 monkey kidney cells (ATCC CRL-1651) with the PPARα plasmid and pFR-luciferase vector (Stratagene, USA), and then by treating the transfected cells with macelignan isolated from Example 1 for 24 hours. The PPARα plasmid was obtained by isolating polynucleotide encoding the amino acid sequence of amino acids […] (i.e. PPARα ligand-bound domain of the total amino acid sequence of human PPARα (Genbank Acession No. S74349)) with the primers of SEQ ID NO: 1 ([…]) and SEQ ID NO: 2 (TGGGGTACCTGGCTGAT) by RT-PCR. Then, the polynucleotide was cloned between the restriction enzyme sites of BamHI and KpnI of pFA vector (Stratagene, USA). Herein, mRNA used as the template in RT-PCR was obtained by separating the total RNA in cultured Hep G2 (ATCC HB-8065) human liver cells by using TRIZOL (Invitrogen, USA). RT-PCR was performed by synthesizing cDNA using reverse transcriptase at 42° C. for 60 minutes, and 30 cycles of 1 minute at 95° C., 30 seconds at 54° C. and 2 minutes at 72° C. using Taq polymerase. At this time, the test groups treated with different concentrations (1, 5, 10 and 25 μM) of macelignan according to the present invention were compared to the control treated with 0.01% DMSO, and to the groups treated with different concentrations (1, 5, 10 and 25 μM) of Wy-14643 (Sigma, USA), a compound known as a PPARα ligand.

[1] = tested on: 3T3-L1 mouse pre-adipocytes; experiment: Stimulation of adipocyte differentiation; type: cell-based; details: 10 μM, 3T3-L1, vs 0.01% DMSO control and 10 μM troglitazone
Description: 3T3-L1 mouse pre-adipocytes cultured in a DMEM medium containing 10% FBS were pipetted into a multi-well plate in a cell count of 1×10^6 cells per well, and then further cultured for 5 hours. To the cultured cells, 10 μM of macelignan was added and then left for 24 hours. Adipocyte differentiation was induced by substituting the medium of the cultured cells with MDI (0.5 mM 3-isobutyl-1-methylxanthine, 0.5 uM dexamethasone, 10 ug/ml insulin) medium (Am. J. Physiol. Cell Physiol., 280: C807-C813, 2001). The shape of the cells was observed by an optical microscope two day after the substitution of MDI medium.

[2] = tested on: obesity/diabetes mice (db/db mice); experiment: Anti-obesity effect in obesity/diabetes mouse model; type: in vivo; details: for body weight / intramuscular triglyceride accumulation / white adipose tissue weight: 14th day, db/db mice
Description: To investigate the anti-obesity effect of macelignan, seven mice of 10 week-aged obesity/diabetes mice (db/db mice) were used per test group. To the test groups, macelignan suspended in […] carboxymethyl cellulose was orally administered in an administration dose of 5 mg/kg (body weight), 10 mg/kg (body weight) and 25 mg/kg (body weight), once per day at a predetermined time, for 14 days. As a control, 0.25% carboxymethyl cellulose was orally administered alone to normal mice in the same dose as administered to the test group. As another control, 0.25% carboxymethyl cellulose was orally administered alone to obesity/diabetes mice in the same dose as administered to the test group. As still another control, 10 mg/kg (body weight) of troglitazone was orally administered. From 6 days before the administration, diet intake and body weight of each obesity/diabetes mouse were measured once per three days. Additionally, on the 14th day after the oral administration, white adipose tissue weight and the amount of triglyceride accumulated in muscle cell were measured (Triglyceride measuring kit, Wako, No. 432-40201, Japan).

[3] = tested on: target genes of PPARγ (CD36, LPL, ACS, GyK); experiment: Expression of target genes of PPARγ in liver tissue of obesity/diabetes mouse model; type: in vivo; details: 5, 10 and 25 mg/kg oral, 14 days, db/db mice, p<0.05 vs control
Description: Liver tissue was removed from the test groups and the controls treated by oral administration in Examples 5˜8. The liver tissue was homogenized in liquid nitrogen and the total RNA was isolated from the crushed tissues by using TRIZOL (Invitrogen, USA). The total RNA isolated as described above was determined and cDNA was synthesized by using reverse transcriptase at 42° C. for 20 minutes. The cDNA was subjected to RT-PCR by repeating the cycle of 95° C./1 minute, 56° C./30 seconds and 72° C./2 minutes thirty times with the following primers and Taq polymerase: primers for CD36 amplification (SEQ ID NO: 5 and SEQ ID NO: 6), primers for LPL amplification (SEQ ID NO: 13 and SEQ ID NO: 14), primers for ACS amplification (SEQ ID NO: 17 (AGCAGAGCTTCGCACGGC) and SEQ ID NO: 18 ([…]) and primers for GyK amplification (SEQ ID NO: 19 ([…]) and SEQ ID NO: 20 ([…])). Expression of the genes was determined by real-time PCR.

## COc1cc(C[C@H](C)[C@H](C)Cc2ccc3c(c2)OCO3)ccc1O (single isomer, unassigned) [macelignan]
Human PPARα; 25 μM, control 0.01% DMSO
  luciferase activity higher than the control (PPARα): about 14 times
Human PPARα; 1, 5, 10 and 25 μM, p<0.01 vs control
  PPARα activity: increased PPARα activity in a concentration-dependent manner
[1]
  adipocyte differentiation: adipocyte differentiation was stimulated
[2]; 5 mg/kg oral
  body weight: 46.32 ± 2.31 g
  intramuscular triglyceride accumulation: 24.7 ± 4.74 mg
  white adipose tissue weight: 4230 ± 284 mg
[2]; 10 mg/kg oral
  body weight: 43.8 ± 2.94 g
  intramuscular triglyceride accumulation: 22.8 ± 5.76 mg
  white adipose tissue weight: 3900 ± 279 mg
[2]; 25 mg/kg oral
  body weight: 41.80 ± 1.56 g
  intramuscular triglyceride accumulation: 20.2 ± 3.82 mg
  white adipose tissue weight: 2690 ± 154 mg
[2]; 5, 10 and 25 mg/kg oral, 14 days, test groups vs controls
  diet intake: no significant difference
[3]
  mRNA expression of CD36, LPL, ACS and GyK in liver tissue: significantly increased
